Consider 21 compounds from patent EP0994107A1, “5-Arylisoxazol-4-yl-substituted 2-amino carboxylic acid compounds” (H. LUNDBECK A/S, priority 1993, dated 1995).

As a reminder, the EC50 is the midpoint of the concentration-response curve. A low value points to higher potency in that assay. Usually IC50 stands for the concentration needed to halve the response being measured. Broadly, the Ki is the dissociation constant of the complex between target and ligand, obtained from inhibition or displacement.

The subject of assay [1] is AMPA. In words: Cortical wedge model (electrophysiology, rat cortical wedge preparation), AMPA subtype. In kind it is cell-based. The note with it: receptor subtype AMPA; for EC50: agonist; for Ki: starred in IC50 column (*) = Ki value). How it is done: (§1) The Cortical wedge model is a test in which slices of rat brain is examined in vitro in order to quantify the effect of ligands at the Glu-receptors and evaluate the pharmacological profile of the ligands (i.e. agonist/antagonist properties). The test was performed as described by Harrison, N.L. and Simmonds, M.A. Br.J. Pharmacol. 1985, 84, 381-391 as modified according to Wheatley, P.L. Br.J.Pharmacol. 1986, 87, 159P.

In assay [2] the target is AMPA receptors. Put plainly: [3H]AMPA binding (displacement of [3H]AMPA, in the presence of KSCN). The note with it: only high affinity binding sites labelled. How it is done:
In this test the affinity of a drug for AMPA receptors is determined by measuring the ability to displace [^3H]AMPA from AMPA receptors.
The test was carried out in accordance with a modified version of the method of Honoré, T. and Nielsen, M., Neurosci.Lett. 1985, 54, 27-32. The test was carried out in the presence of KSCN. This means that only the [^3H]AMPA high affinity binding sites were labelled.
The membrane preparations used were obtained in accordance with the method of Ransom, R.W. and Stec, J.Neurochem. 1988, 51, 830-836.
On the technique in general: In a radioligand displacement assay an active substance lowers the binding of a labelled ligand.

Assay [3] deals with NMDA-receptor. Put plainly: [3H]CPP binding (displacement of [3H]CPP from the transmitter binding site).
Assay [4] concerns NMDA. Put plainly: Cortical wedge model (electrophysiology, rat cortical wedge preparation), NMDA subtype. In kind it is cell-based. The note with it: receptor subtype NMDA; for EC50: agonist; for IC50: antagonist. How it is done: as §1
For assay [5], the system named is KAIN. In words: Cortical wedge model (electrophysiology, rat cortical wedge preparation), KAIN subtype. In kind it is cell-based. The note with it: receptor subtype KAIN. How it is done:
as §1

Take `NC(Cc1c(O)noc1-c1cccs1)C(=O)O` (racemic) [Compound 1a, (RS)-2-Amino-3-[3-hydroxy-5-(2-thienyl)isoxazol-4-yl]propionic Acid]: in assay [1], the Profile result is on record as “Agonist” and a half-maximal response (EC50) required 5.8 µM. The IC50 in assay [2] worked out at 0.28 µM. Besides, the IC50 in assay [3] is > 100 µM.

For the compound `NC(Cc1c(O)noc1-c1ccsc1)C(=O)O` (racemic) [Compound 1b, (RS)-2-Amino-3-[3-hydroxy-5-(3-thienyl)isoxazol-4-yl]propionic Acid], in assay [1], the Profile result is recorded as “Agonist” and a half-maximal response (EC50) required 43 µM. In assay [2], the 50% inhibitory concentration (IC50) stood at 3.5 µM. The IC50 in assay [3] was > 100 µM.

Take `Cc1ccc(-c2onc(O)c2CC(N)C(=O)O)s1` (racemic) [Compound 1f, (RS)-2-Amino-3-[3-hydroxy-5-(5-methyl-2-thienyl)isoxazol-4-yl]propionic Acid]: in assay [1], the Profile entry was “Agonist” and the EC50 is 130 µM.

With `NC(C(=O)O)c1c(O)noc1-c1ccccc1` (racemic) [Compound 2a, (RS)-2-Amino-2-(3-hydroxy-5-phenylisoxazol-4-yl)acetic Acid], the IC50 was found to be 43 µM in assay [2] and 7.5 µM in assay [3]. The Profile result in assay [4] is reported as “Part. Ago.#”. In addition, a half-maximal response in assay [4] (EC50) required 300 µM.

For the compound `NC(C(=O)O)c1c(O)noc1-c1cccs1` (racemic) [Compound 2b, (RS)-2-Amino-2-[3-hydroxy-5-(2-thienyl)isoxazol-4-yl]acetic Acid], in assay [4], the Profile entry is “Agonist” and the EC50 stood at 30 µM.

Consider `NC(CCCc1c(O)noc1-c1ccccc1)C(=O)O` (racemic) [Compound 3a, (RS)-2-Amino-5-(3-hydroxy-5-phenylisoxazol-4-yl)pentanoic Acid], for which the Profile entry in assay [1] is reported as “Agonist”. This compound also registered an EC50 in assay [1] of 240 µM. The IC50 in assay [2] was found to be 9 µM; in assay [3] it was 21 µM.

`NC(CCc1c(O)noc1-c1ccc(F)cc1)C(=O)O` (racemic) [Compound 4a, (RS)-2-Amino-4-[5-(4-fluorophenyl)-3-hydroxyisoxazol-4-yl]butanoic Acid]: the IC50 is > 100 µM in assay [2], 9 µM in assay [4] and 0.76 µM in assay [3]. Also, in assay [4], the Profile result is recorded as “Antagonist”.

`NC(CCc1c(O)noc1-c1ccccc1)C(=O)O` (racemic) [Compound 4b, (RS)-2-Amino-4-(3-hydroxy-5-phenylisoxazol-4-yl)butanoic Acid]: the results for the IC50 in assay [2], in assay [4] and in assay [3] were > 100 µM, 18 µM and 2.5 µM, respectively. Also, the Profile result in assay [4] is on record as “Antagonist”.

For the compound `NC(CCc1c(O)noc1-c1cccs1)C(=O)O` (racemic) [Compound 4c, (RS)-2-Amino-4-[3-hydroxy-5-(2-thienyl)isoxazol-4-yl]butanoic Acid], the values for the IC50 in assay [2], in assay [4] and in assay [3] were > 100 µM, 2.5 µM and 0.19 µM, respectively. Moreover, the Profile entry in assay [4] is “Antagonist”.

For `NC(CCc1c(O)noc1-c1ccsc1)C(=O)O` (racemic) [Compound 4d, (RS)-2-Amino-4-[3-hydroxy-5-(3-thienyl)isoxazol-4-yl]butanoic Acid], the figures for the IC50 in assay [2], in assay [4] and in assay [3] were > 100 µM, 8.6 µM and 0.7 µM, respectively. For the same compound, the Profile result in assay [4] is recorded as “Antagonist”.

`NC(Cc1c(O)noc1-c1ccccn1)C(=O)O` (racemic) [Compound 13a, (RS)-2-Amino-3-[3-hydroxy-5-(2-pyridyl)isoxazol-4-yl)propionic Acid]: in assay [1], the Profile entry is reported as “Agonist” and the EC50 was 55 µM.

`NC(Cc1c(O)noc1-c1ccncc1)C(=O)O` (racemic) [Compound 13b, (RS)-2-Amino-3-[3-hydroxy-5-(4-pyridyl)isoxazol-4-yl]propionic Acid]: in assay [1], the Profile entry is given as “Agonist” and the EC50 was 7.4 µM.

With `NC(Cc1c(O)noc1-c1ccc(F)cc1)C(=O)O` (single isomer, unassigned; (+)) [Compound 14d, (+)-2-Amino-3-[5-(4-fluorophenyl)-3-hydroxyisoxazol-4-yl]propionic Acid], in assay [1], the Profile entry is listed as “Agonist” and the EC50 was 170 µM.

For the compound `NC(Cc1c(O)noc1-c1cccs1)C(=O)O` (single isomer, unassigned; (+)) [Compound 15b, (+)-2-Amino-3-[3-hydroxy-5-(2-thienyl)isoxazol-4-yl]propionic acid], in assay [1], the Profile entry is reported as “Agonist” and a half-maximal effect (EC50) was put at 2.7 µM.

`NC(Cc1c(O)noc1-c1ccc(F)cc1)C(=O)O` (single isomer, unassigned; (-)) [Compound 14c, (-)-2-Amino-3-[5-(4-fluorophenyl)-3-hydroxyisoxazol-4-yl]propionic Acid]: in assay [1], the Profile entry is on record as “Antagonist” and the Ki was determined as 337 µM.

In the case of `NC(Cc1c(O)noc1-c1cccs1)C(=O)O` (single isomer, unassigned; (-)) [Compound 15a, (-)-2-Amino-3-[3-hydroxy-5-(2-thienyl)isoxazol-4-yl]propionic Acid], the Profile result in assay [1] was “Antagonist”. The compound also displayed an IC50 in assay [1] (antagonist) of 300 µM.

As to `Nc1c(NCc2c(O)noc2-c2ccccc2)c(=O)c1=O` [Compound 5a, 4-[(2-Amino-3,4-dioxo-1-cyclobuten-1-yl)aminomethyl]-3-hydroxy-5-phenylisoxazole], the Profile result in assay [5], in assay [1] and in assay [4] was “Antagonist” in each case. Besides, the results for the IC50 in assay [2] and in assay [3] were 33 µM and 22 µM, respectively.

With `Nc1c(NCc2c(O)noc2-c2cccs2)c(=O)c1=O` [Compound 5b, 4-[(2-Amino-3,4-dioxo-1-cyclobuten-1-yl)aminomethyl]-3-hydroxy-5-(2-thienyl)isoxazole], the values for the IC50 in assay [2], in assay [4] and in assay [3] were 38 µM, 30 µM and 6.9 µM, respectively. The Profile result in assay [4] was “Antagonist”.

On to `Nc1c(NCc2c(O)noc2-c2ccsc2)c(=O)c1=O` [Compound 5c, 4-[(2-Amino-3,4-dioxo-1-cyclobuten-1-yl)aminomethyl]-3-hydroxy-5-(3-thienyl)isoxazole], for which the Profile result in assay [1] and in assay [4] was “Antagonist” throughout.

For `N[C@@H](Cc1c(O)noc1-c1ccccc1)C(=O)O` [Compound 14a, (S)-(+)-2-Amino-3-(3-hydroxy-5-phenylisoxazol-4-yl)propionic acid], in assay [1], the Profile result is “Agonist” and the EC50 came to 230 µM. Moreover, the IC50 in assay [2] came out at 5.5 µM.

As to `N[C@H](Cc1c(O)noc1-c1ccccc1)C(=O)O` [Compound 14b, (R)-(-)-2-Amino-3-(3-hydroxy-5-phenylisoxazol-4-yl)propionic acid], the Profile entry in assay [5] and in assay [1] was “Antagonist” each time. The Ki in assay [5] (starred in IC50 column (*) = Ki value)) was found to be 950 µM; in assay [1] it was 290 µM.
